Read-outs that look alike come from different tables or passages of the source. Numbered stars: 1 amine (or outer) side, 2 acyl side, 3 side chain; on linkers, the order of the positions; unused ones are H or OH. Bridge positions count the residues as written; N and C are the ends. Square brackets hold non-standard residues; d marks the D form. Peptide text beside a SMILES is read from it. * marks the point of attachment. X3 = CCCN1C[C@H](CSCC(=O)Oc2ccc(C[C@H](N[*:1])C(=O)[*:2])cc2I)C[C@@H]2c3cccc4[nH]cc(c34)C[C@H]21; X1 = CCCN1C[C@H](CSCC(=O)*)C[C@@H]2c3cccc4[nH]cc(c34)C[C@H]21; X2 = CN1C[C@H](CSCC(=O)*)C[C@@H]2c3cccc4[nH]cc(c34)C[C@H]21; Pipz(1-CH2CO,4-CH2CH2NH) = O=C(CN1CCN(CCN[*:1])CC1)[*:2]; Abu = CC[C@H](N)C(=O)O; AEEA = NCCOCCOCC(=O)O
What was measured:
hsst2 = target: T1, hsst2 (Homo sapiens, UniProt P30874); experiment: Somatostatin receptor radioligand binding assay, hsst2; conditions: CHO-K1 membranes, [125I]MK-678; read-out: hsst2 Ki
T1 construct: expressed in transfected cells
Summary of the method: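 Membranes from CHO-K1 cells stably expressing human SSTR2, in 10 mM Tris-HCl, incubated 90 min at 25 °C with 0.05 nM [125I]MK-678. Bound ligand collected by filtration on PEI-soaked GF/C filters; nonspecific binding defined with 1000 nM MK-678.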

hsst3 = target: T2, hsst3 (Homo sapiens, UniProt P32745); experiment: Somatostatin receptor radioligand binding assay, hsst3
T2 construct: expressed in transfected cells
Summary of the method: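 Membranes from CHO-K1 cells stably transfected with each human SSTR subtype, incubated 90 min at 25 °C with 0.05 nM [125I-Tyr11]SS-14 in 50 mM HEPES pH 7.4 with BSA, MgCl2 and protease inhibitors; filtration read-out. Nonspecific binding with 1000 nM SS-14; Ki values reported.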

hDA2 = experiment: Dopamine-2 receptor radioligand binding assay; parameters: species or system human; conditions: [3H]spiperone
hsst1 = target: T3, hsst1 (Homo sapiens, UniProt P30872); experiment: Somatostatin receptor radioligand binding assay, hsst1
T3 construct: expressed in transfected cells
Protocol: Specificity and selectivity of the somatostatin analogues used to synthesize the somatostatin-dopamine chimers were determined by a radioligand binding assay on CHO-K1 cells stably transfected with each of the SSTR subtypes, as follows. Somatostatin analogs are also described in U.S. Patent Application Publication No. 02210006790. The complete coding sequences of genomic fragments of the SSTR 1 (e.g., Genbank accession No. M81829), SSTR 2 (e.g., Genbank accession No. M81830), SSTR 3 (e.g., Genbank accession No. L07062), and SSTR 4 (e.g., Genbank accession No. AL049651) genes and a cDNA clone for SSTR 5 (e.g., Genbank accession No. D16827) was subcloned into the mammalian expression vector pCMV (Life Technologies, Milano, Italy). Other SSTR sequences are known to the skilled artisan. Clonal cell lines stably expressing SSTR's 1-5 were obtained by transfection into CHO-K1 cells (ATCC, Manassas, Va., USA) using the calcium phosphate co-precipitation method (Davis L, et al., 1994 In: Basic methods in Molecular Biology, 2nd edition, Appleton & Lange, Norwalk, Conn., USA: 611-646). The plasmid pRSV-neo (ATCC) was included as a selectable marker. Clonal cell lines were selected in RPMI 1640 media containing 0.5 mg/mL of G418 (Life Technologies, Milano, Italy), ring cloned, and expanded into culture.
Membranes for in vitro receptor binding assays were obtained by homogenizing the CHO-K1 cells expressing the SSTR's subtypes in ice-cold 50 mM Tris-HCl and centrifuging twice at 39,000 g (10 min), with an intermediate resuspension in fresh buffer. The final pellets were resuspended in 10 mM Tris-HCl for assay.
For the SSTR 1, 3, 4, and 5 assays, aliquots of the membrane preparations were incubated 90 minutes at 25° C. with 0.05 nM [^125I-Tyr11]SS-14 in 50 mM HEPES (pH 7.4) containing 10 mg/mL BSA, 5 mM MgCl2, 200 KIU/mL Trasylol, 0.02 mg/mL bacitracin, and 0.02 mg/mL phenylmethylsuphonyl fluoride. The final assay volume was 0.3 mL.
For the SSTR 2 assay, 0.05 nM [^125I]MK-678 was employed as the radioligand and the incubation time was 90 minutes at 25° C. The incubations were terminated by rapid filtration through GF/C glass microfiber filters (Whatman Co.) (pre-soaked in 0.3% polyethylenimine) using a BRANDEL filtration manifold. Each tube and filter was washed three times with 5 mL aliquots of ice-cold buffer. Specific binding was defined as the total radioligand bound minus that bound in the presence of 1000 nM SS-14 for SSTR 1, 3, 4, and 5, or 1000 nM MK-678 for SSTR2.
(§1) Using the discussed assays, the inhibition constants (Ki) for the five human somatostatin receptors (hSSTR1-hSSTR5) and the dopamine-2 receptor (hUTII and hDA2) were measured for the exemplified somatostatin-dopamine conjugates, as follows: […]

hUTII = target: T4, hUTII (Homo sapiens, UniProt Q9UKP6); experiment: hUTII inhibition constant; assay type: binding; conditions: read-out: hUTII Ki
T4 sequence (Q9UKP6 1-389): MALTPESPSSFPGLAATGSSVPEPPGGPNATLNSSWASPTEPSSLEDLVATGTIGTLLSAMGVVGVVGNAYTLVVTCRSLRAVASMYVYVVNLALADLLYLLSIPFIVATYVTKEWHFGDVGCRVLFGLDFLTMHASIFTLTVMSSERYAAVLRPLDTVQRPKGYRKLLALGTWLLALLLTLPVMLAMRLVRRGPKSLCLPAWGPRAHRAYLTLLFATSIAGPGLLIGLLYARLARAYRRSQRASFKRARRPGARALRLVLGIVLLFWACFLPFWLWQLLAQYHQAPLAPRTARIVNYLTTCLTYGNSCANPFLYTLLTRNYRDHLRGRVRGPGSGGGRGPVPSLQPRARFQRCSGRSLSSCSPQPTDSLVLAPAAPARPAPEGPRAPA
Protocol: as §1

hsst5 = target: T5, hsst5 (Homo sapiens, UniProt P35346); experiment: Somatostatin receptor radioligand binding assay, hsst5; conditions: CHO-K1 membranes, [125I-Tyr11]SS-14
T5 construct: expressed in transfected cells
Summary of the method: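 Membranes from CHO-K1 cells stably expressing hsst5, incubated 90 min at 25 °C with 0.05 nM [125I-Tyr11]SS-14 in 50 mM HEPES pH 7.4 with BSA, MgCl2 and protease inhibitors. Bound ligand collected by filtration. Non-specific binding defined with 1000 nM SS-14.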

[1] = CHO-K1 membranes, [125I-Tyr11]SS-14, read-out: hsst3 Ki
[2] = CHO-K1 membranes, [125I-Tyr11]SS-14, read-out: hsst1 Ki

T1 sequence (P30874 whole entry): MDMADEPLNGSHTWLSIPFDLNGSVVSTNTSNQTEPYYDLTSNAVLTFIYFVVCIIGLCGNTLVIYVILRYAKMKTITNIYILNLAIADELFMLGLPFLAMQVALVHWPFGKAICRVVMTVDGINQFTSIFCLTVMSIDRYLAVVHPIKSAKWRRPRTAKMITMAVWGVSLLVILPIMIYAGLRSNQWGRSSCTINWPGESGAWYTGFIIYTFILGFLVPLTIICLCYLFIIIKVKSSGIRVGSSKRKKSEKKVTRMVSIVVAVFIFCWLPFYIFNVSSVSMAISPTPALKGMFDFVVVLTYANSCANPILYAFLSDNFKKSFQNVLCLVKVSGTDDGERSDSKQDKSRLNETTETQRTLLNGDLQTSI
T2 sequence (P32745 whole entry): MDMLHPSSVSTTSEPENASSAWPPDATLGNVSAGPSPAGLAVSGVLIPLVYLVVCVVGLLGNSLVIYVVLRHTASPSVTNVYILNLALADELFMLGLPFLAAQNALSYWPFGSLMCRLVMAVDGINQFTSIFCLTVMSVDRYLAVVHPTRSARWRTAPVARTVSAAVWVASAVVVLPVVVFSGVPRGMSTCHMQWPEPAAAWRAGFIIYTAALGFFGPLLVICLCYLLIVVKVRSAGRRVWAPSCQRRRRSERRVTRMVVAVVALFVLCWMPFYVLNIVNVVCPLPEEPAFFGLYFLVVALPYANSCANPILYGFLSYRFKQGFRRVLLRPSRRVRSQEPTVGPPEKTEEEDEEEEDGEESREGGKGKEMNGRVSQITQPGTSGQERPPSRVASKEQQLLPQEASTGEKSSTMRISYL
T5 sequence (P35346 whole entry): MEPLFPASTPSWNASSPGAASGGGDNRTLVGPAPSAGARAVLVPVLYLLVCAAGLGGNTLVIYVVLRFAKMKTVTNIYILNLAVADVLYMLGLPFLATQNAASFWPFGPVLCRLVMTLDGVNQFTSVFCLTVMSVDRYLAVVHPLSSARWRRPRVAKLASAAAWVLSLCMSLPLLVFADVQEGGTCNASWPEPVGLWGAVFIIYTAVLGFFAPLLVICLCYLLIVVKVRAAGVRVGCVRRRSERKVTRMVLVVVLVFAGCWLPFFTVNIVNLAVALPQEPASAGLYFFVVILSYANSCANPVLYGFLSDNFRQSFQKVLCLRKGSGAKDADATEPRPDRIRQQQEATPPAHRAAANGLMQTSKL
T3 sequence (P30872 whole entry): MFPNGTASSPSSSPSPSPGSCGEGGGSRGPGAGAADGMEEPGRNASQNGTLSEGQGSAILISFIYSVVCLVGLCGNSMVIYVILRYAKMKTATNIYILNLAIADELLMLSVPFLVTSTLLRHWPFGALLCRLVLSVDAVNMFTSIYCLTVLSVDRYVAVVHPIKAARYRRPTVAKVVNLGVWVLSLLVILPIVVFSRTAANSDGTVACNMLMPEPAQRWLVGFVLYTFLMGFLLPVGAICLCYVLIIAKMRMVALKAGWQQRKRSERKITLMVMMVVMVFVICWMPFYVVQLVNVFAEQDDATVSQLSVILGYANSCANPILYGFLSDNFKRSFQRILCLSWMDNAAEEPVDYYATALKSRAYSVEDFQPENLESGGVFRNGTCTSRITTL

Ki (hsst2) | Ki (hsst3; [1]) | Ki (hDA2) | Ki (hsst1; [2]) | Ki (hUTII) | Ki (hsst5; read-out: hsst5 Ki) | SMILES | Ki (hsst3) | Ki (hsst1) | Ki (hsst5; hsst5 Ki)
0.15 nM | 324 nM | 8.22 nM | 549 nM | 177 nM | 26.5 nM | CCCN1C[C@H](CSCC(=O)NCCCC[C@H](NC(=O)CSC[C@@H]2C[C@@H]3c4cccc5[nH]cc(c45)C[C@H]3N(CCC)C2)C(=O)N[C@H](Cc2ccc(O)cc2)C(=O)N[C@H](Cc2ccc(O)cc2)C(=O)N[C@H]2CSSC[C@@H](C(=O)N[C@H](C(N)=O)[C@@H](C)O)NC(=O)[C@H](CC)NC(=O)[C@H](CCCCN)NC(=O)[C@@H](Cc3c[nH]c4ccccc34)NC(=O)[C@H](Cc3ccc(O)cc3)NC2=O)C[C@@H]2c3cccc4[nH]cc(c34)C[C@H]21 [Example 10] (X1-K(X1)[dY][dY]CY[dW]K[Abu]CT-NH2; disulfide 4-9) | – | – | –
0.15 nM | 49.5 nM | 23.7 nM | 689 nM | 619 nM | 15.7 nM | CC[C@@H]1NC(=O)[C@H](CCCCN)NC(=O)[C@@H](Cc2c[nH]c3ccccc23)NC(=O)[C@H](Cc2ccc(O)cc2)NC(=O)[C@@H](NC(=O)[C@@H](Cc2ccccc2)NC(=O)CSC[C@@H]2C[C@@H]3c4cccc5[nH]cc(c45)C[C@H]3N(C)C2)CSSC[C@@H](C(=O)N[C@H](C(N)=O)[C@@H](C)O)NC1=O [Example 30] | – | – | –
0.04 nM | 162 nM | 119 nM | 437 nM | 64.4 nM | 8.91 nM | CCCN1C[C@H](CSCC(=O)NCCCC[C@H](NC(C)=O)C(=O)N[C@H](Cc2ccc(O)cc2)C(=O)N[C@H](Cc2ccc(O)cc2)C(=O)N[C@H]2CSSC[C@@H](C(=O)N[C@H](C(N)=O)[C@@H](C)O)NC(=O)[C@H](CC)NC(=O)[C@H](CCCCN)NC(=O)[C@@H](Cc3c[nH]c4ccccc34)NC(=O)[C@H](Cc3ccc(O)cc3)NC2=O)C[C@@H]2c3cccc4[nH]cc(c34)C[C@H]21 [Example 11] (Ac-K(X1)[dY][dY]CY[dW]K[Abu]CT-NH2; disulfide 4-9) | – | – | –
1.65 nM | 1050 nM | 15.5 nM | 1000 nM | 105 nM | 27.6 nM | CCCN1C[C@H](CSCC(=O)N[C@H](Cc2ccccc2)C(=O)NCCOCCOCC(=O)N[C@H](Cc2ccccc2)C(=O)N[C@H]2CSSC[C@@H](C(=O)N[C@H](C(N)=O)[C@@H](C)O)NC(=O)[C@H](C(C)C)NC(=O)[C@H](CCCCN)NC(=O)[C@@H](Cc3c[nH]c4ccccc34)NC(=O)[C@H](Cc3ccc(OC(=O)CSC[C@@H]4C[C@@H]5c6cccc7[nH]cc(c67)C[C@H]5N(CCC)C4)c(I)c3)NC2=O)C[C@@H]2c3cccc4[nH]cc(c34)C[C@H]21 [Example 5] (X1-[dF][AEEA][dF]C[X3][dW]KVCT-NH2; disulfide 4-9) | – | – | –
0.34 nM | 120 nM | 278 nM | 1000 nM | 510 nM | 20.6 nM | CC[C@@H]1NC(=O)[C@H](CCCCN)NC(=O)[C@@H](Cc2c[nH]c3ccccc23)NC(=O)[C@H](Cc2ccc(O)cc2)NC(=O)[C@@H](NC(=O)[C@@H](Cc2ccccc2)NC(=O)COCCOCCNC(=O)COCCOCCNC(=O)CSC[C@@H]2C[C@@H]3c4cccc5[nH]cc(c45)C[C@H]3N(C)C2)CSSC[C@@H](C(=O)N[C@H](C(N)=O)[C@@H](C)O)NC1=O [Example 42] | – | – | –

Second part, the molecule before the results:

SMILES | Ki (hsst2) | Ki (hsst3; [1]) | Ki (hDA2) | Ki (hsst1; [2]) | Ki (hUTII) | Ki (hsst5; read-out: hsst5 Ki) | Ki (hsst3) | Ki (hsst1) | Ki (hsst5; hsst5 Ki)
CCCN1C[C@H](CSCC(=O)NCCCC[C@H](NC(=O)CSC[C@@H]2C[C@@H]3c4cccc5[nH]cc(c45)C[C@H]3N(CCC)C2)C(=O)N[C@H]2CSSC[C@@H](C(=O)N[C@H](C(N)=O)[C@@H](C)O)NC(=O)[C@H](CC)NC(=O)[C@H](CCCCN)NC(=O)[C@@H](Cc3c[nH]c4ccccc34)NC(=O)[C@H](Cc3ccc(O)cc3)NC2=O)C[C@@H]2c3cccc4[nH]cc(c34)C[C@H]21 [Example 9] | 0.54 nM | – | 8.3 nM | – | 635 nM | – | 536 nM | 273 nM | 99.5 nM
CCNC(=O)N(CCCN(C)CC(=O)N[C@H](Cc1ccccc1)C(=O)N[C@H]1CSSC[C@@H](C(=O)N[C@H](C(N)=O)[C@@H](C)O)NC(=O)[C@H](CC)NC(=O)[C@H](CCCCN)NC(=O)[C@@H](Cc2c[nH]c3ccccc23)NC(=O)[C@H](Cc2ccc(O)cc2)NC1=O)C(=O)[C@H]1CN[C@@H]2Cc3c[nH]c4cccc(c34)[C@H]2C1 [Example 7] | 0.19 nM | 267 nM | 193 nM | 345 nM | 695 nM | 28.6 nM | – | – | –
CC[C@@H]1NC(=O)[C@H](CCCCN)NC(=O)[C@@H](Cc2c[nH]c3ccccc23)NC(=O)[C@H](Cc2ccc(O)cc2)NC(=O)[C@@H](NC(=O)[C@@H](Cc2ccc(O)cc2)NC(=O)[C@@H](Cc2ccc(O)cc2)NC(=O)[C@H](CCCCN)NC(=O)CN2CCN(CCNC(=O)CN3CCN(CCNC(=O)CSC[C@@H]4C[C@@H]5c6cccc7[nH]cc(c67)C[C@H]5N(C)C4)CC3)CC2)CSSC[C@@H](C(=O)N[C@H](C(N)=O)[C@@H](C)O)NC1=O [Example 28] (X2-[Pipz(1-CH2CO,4-CH2CH2NH)][Pipz(1-CH2CO,4-CH2CH2NH)]K[dY][dY]CY[dW]K[Abu]CT-NH2; disulfide 6-11) | 0.11 nM | – | 506 nM | – | 564 nM | – | 156 nM | 661 nM | 5.13 nM

From patent publication US20110065632A1, “PHARMACEUTICAL COMPOSITIONS OF SOMATOSTATIN-DOPAMINE CONJUGATES” (priority 2008, published 2011)
